Several values for one entry are separate records, joined by “and”; a condition that tells them apart may be missing. Identical values can stand only once.

The text below walks through data of PMC11025159 (Journal of Translational Medicine, 2024).

Series [1] can be described thus: Body weight of athymic nude mice during topical treatment. Type of series: in vivo, athymic nude mice (NU/J Foxn1nu). The following applies: individual mice. On the procedure:
. The groups are as follows: Group 1-Control (untreated), Group 2-Vehicle control, Group 3-tofacitinib citrate (0.8 mg/Kg), Group 4-tofacitinib citrate (0.08 mg/Kg), Group 5-MJ04 (0.08 mg/Kg), Group 6-MJ04 (0.04 mg/Kg), Group 7-MJ04 (0.016 mg/Kg), Group 8-baricitinib (0.1 mg/Kg), Group 9-baricitinib (0.04 mg/Kg), and Group 10-baricitinib (0.02 mg/Kg). At the end of the experiment, skin samples were collected and preserved in 10% neutral buffered formalin for tissue sectioning and staining using haematoxylin and eosin (H&E). […]

For a further series, the target named is T1, EGFR (Homo sapiens, UniProt P00533).
T1 construct: purchased Promega Corporation V3831
Briefly: Cell-free kinase assay EGFR. It counts as biochemical. On the procedure:
(§1) The cell-free kinase assays of small molecules were determined by following the manufacturer-recommended protocols. Different concentrations in triplicate were used to determine the IC50 value of the hit molecules (active molecules). For data analysis, GraphPad Prism V9.5 Software and a sigmoidal dose–response (variable slope) equation were used. Each value represents an average of three replicates per concentration.

A further series deals with T2, PI-3-K α (Homo sapiens, UniProt P42336).
T2 construct: purchased Promega Corporation V1690
Briefly: Cell-free kinase assay PI-3-K α. It counts as biochemical. Particulars: Km ATP. The procedure: as §1

Another series concerns the target T3, PI-3-K γ (Homo sapiens, UniProt P48736).
T3 construct: purchased Promega Corporation V1690
Briefly: Cell-free kinase assay PI-3-K γ. It counts as biochemical. The procedure:
as §1

A further series deals with T4, PI-3-K δ (Homo sapiens, UniProt O00329).
T4 construct: purchased Promega Corporation V1690
Briefly: Cell-free kinase assay PI-3-K δ. Type of series: biochemical. Particulars: Km ATP. The procedure: as §1

The next series has as its system HCT-116. Kind of series: MTT cell viability assay HCT-116. Type of series: cell-based, human. Particulars: Homo sapiens, HCT-116, 48 h. On the procedure: (§2) Cell viability was evaluated using an MTT colorimetric assay. Cells were seeded (10^5 cells/mL) in 96-well plates and allowed to grow overnight at 37 ℃ with 5% CO2 in a cell-culture incubator. On the following day, the cells were treated with small molecules at different concentrations (0.2–10 micro-molar) or vehicle (DMSO). Cells were then further incubated for 48 h.
In general terms: Tetrazolium dyes change colour on reduction, which living cells bring about.

In the next series the test system is Mia PaCa-2. Briefly: MTT cell viability assay Mia PaCa-2. It counts as cell-based, human. Particulars: Homo sapiens, MIA PaCa-2, 48 h. The procedure: as §2
The next series deals with HEK-293. Kind of series: MTT cell viability assay HEK-293. Type of series: cell-based, human. On the procedure: as §2
Series [2] deals with phosphorylation of JAK1, JAK3 and STAT3. Kind of series: Western blotting of JAK/STAT phosphorylation in A549 cells. Type of series: cell-based, human. On the procedure: For western blotting, A549 cells were seeded at a density of 0.2 × 10^6 cells/well in 6-well plates. […] Whole-cell lysates were prepared in 1× RIPA buffer (Sigma) with added sodium orthovanadate (1 mM), protease cocktail (Roche), NaF (1 mM), PMSF (1 mM) and EDTA (0.5 M). Protein estimation was done using Bradford reagent (Bio-Rad). […] Whole-cell lysates corresponding to 70-100 µg of protein were loaded. The samples were analysed by SDS-PAGE with a 10% separating gel. […] The membrane was probed with specific antibodies for pJAK-1 (1:1000), p-STAT-3 (CST) (1:1000), total JAK-1 (1:1000), pJAK-3 Z(1:1000), T-JAK-3 (1:1000), total STAT-3(1:1000), GAPDH (1:500), and visualized using ECL (Millipore). GAPDH was used as a loading control. […] Following this starvation period, the A549 cells were pre-treated with varying concentrations of MJ04 for a duration of 4 h. Following the pre-treatment, the cells were stimulated with 10 ng/mL of IL-6 for 30 min [20–22].
A general note: A western blot detects proteins with antibodies after separation by electrophoresis.

Series [3] deals with Murine macrophages (J774a.1). Briefly: Cytokines from LPS primed macrophages (ELISA). Type of series: cell-based. The following applies: dose-dependent. On the procedure:
The supernatant was collected and stored at −20 ℃ for further cytokines analysis. The level of cytokines (TNF-α, IL1-β, and IL-6) was analyzed by sandwich ELISA as per the manufacturer protocol (BD Biosciences). In brief, capture antibodies were coated in the 96-well ELISA plate (Nunc) in respective coating buffer at 4 ℃ overnight. The plate was washed 4 times with washing buffer and blocked with the recommended blocking buffer for 1 h at room temperature. After incubation, plates were washed 4 times, added with sample and standard, and further incubated for another 2 h. Plates were then washed 4 times, added with detection antibody in combination of HRP for 1 h, and finally again washed 5 times. HRP substrate (TMB) was added and allowed to develop observable colour, and the reaction was stopped by adding 2 N H2SO4, and absorbance was recorded at 450 nm with 570 nm correction.

A short description of series [4]: Acute dermal toxicity / irritation in C57BL/6 mice. Type of series: in vivo. On the procedure:
The acute dermal toxicity was conducted in Wistar rats to determine the dermal LD50 of MJ04 adhering to Organization for Economic Cooperation and Development (OECD) test guideline 402. A single dose of MJ04 covering 10% of body surface area was administered using a fixed dose procedure from 200 mg/kg to 2000 mg/kg with two animals per dose. The animals were monitored for mortality, morbidity, and clinical signs of toxicity at first 30 min, 6 h, 24 h, and thereafter for 14 days. Parameters like body weight, serum biochemistry (liver function test, kidney function test, and lipid Profile), and histopathology were analysed. The acute dermal irritation test was conducted in C57BL/6J mice at a single dose of 0.04 mg/kg and 0.08 mg/kg of MJ04.
Signal dose acute dermal toxicity tests were conducted in C57BL/6 mice. The tests included limited dosages of a single dose at 0.04 mg/kg and 0.08 mg/kg of MJ04. […] Digital photographs were taken at various time points (0 min, 5 min, 1 h, 4 h, 24 h, and 14 days) from representative areas using a Nikon digital camera (n = 5 mice).

Setting [5] is: A549 cells, increasing concentrations.

T3 sequence (P48736 whole entry): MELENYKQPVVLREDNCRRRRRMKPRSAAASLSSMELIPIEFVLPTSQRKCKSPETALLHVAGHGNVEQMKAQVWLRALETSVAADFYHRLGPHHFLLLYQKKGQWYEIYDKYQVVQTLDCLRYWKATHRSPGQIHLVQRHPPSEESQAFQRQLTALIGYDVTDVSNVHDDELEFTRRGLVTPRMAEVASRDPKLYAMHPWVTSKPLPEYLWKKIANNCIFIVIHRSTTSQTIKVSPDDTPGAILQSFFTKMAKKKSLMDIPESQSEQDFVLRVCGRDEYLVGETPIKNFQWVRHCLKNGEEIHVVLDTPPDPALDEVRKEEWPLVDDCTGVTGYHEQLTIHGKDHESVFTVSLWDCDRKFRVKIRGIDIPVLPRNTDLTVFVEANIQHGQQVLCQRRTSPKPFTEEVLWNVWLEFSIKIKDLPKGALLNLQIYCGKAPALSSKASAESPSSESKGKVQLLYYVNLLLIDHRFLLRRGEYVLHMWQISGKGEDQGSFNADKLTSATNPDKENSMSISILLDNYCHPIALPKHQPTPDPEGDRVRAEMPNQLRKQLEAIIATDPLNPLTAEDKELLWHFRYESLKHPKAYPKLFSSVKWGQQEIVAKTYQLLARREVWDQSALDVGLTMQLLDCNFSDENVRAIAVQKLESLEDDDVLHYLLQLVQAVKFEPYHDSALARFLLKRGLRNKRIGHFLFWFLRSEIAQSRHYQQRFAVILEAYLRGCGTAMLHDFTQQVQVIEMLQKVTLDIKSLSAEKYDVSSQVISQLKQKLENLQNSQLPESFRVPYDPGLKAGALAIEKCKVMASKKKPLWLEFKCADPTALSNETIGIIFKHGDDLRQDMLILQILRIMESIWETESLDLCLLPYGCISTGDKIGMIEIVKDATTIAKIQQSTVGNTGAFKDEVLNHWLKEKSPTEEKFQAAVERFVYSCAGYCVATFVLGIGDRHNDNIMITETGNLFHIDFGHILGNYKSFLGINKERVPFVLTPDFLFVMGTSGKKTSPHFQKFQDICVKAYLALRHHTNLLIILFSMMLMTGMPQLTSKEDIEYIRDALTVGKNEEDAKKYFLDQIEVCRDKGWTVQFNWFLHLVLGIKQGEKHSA
T1 sequence (P00533 25-1210): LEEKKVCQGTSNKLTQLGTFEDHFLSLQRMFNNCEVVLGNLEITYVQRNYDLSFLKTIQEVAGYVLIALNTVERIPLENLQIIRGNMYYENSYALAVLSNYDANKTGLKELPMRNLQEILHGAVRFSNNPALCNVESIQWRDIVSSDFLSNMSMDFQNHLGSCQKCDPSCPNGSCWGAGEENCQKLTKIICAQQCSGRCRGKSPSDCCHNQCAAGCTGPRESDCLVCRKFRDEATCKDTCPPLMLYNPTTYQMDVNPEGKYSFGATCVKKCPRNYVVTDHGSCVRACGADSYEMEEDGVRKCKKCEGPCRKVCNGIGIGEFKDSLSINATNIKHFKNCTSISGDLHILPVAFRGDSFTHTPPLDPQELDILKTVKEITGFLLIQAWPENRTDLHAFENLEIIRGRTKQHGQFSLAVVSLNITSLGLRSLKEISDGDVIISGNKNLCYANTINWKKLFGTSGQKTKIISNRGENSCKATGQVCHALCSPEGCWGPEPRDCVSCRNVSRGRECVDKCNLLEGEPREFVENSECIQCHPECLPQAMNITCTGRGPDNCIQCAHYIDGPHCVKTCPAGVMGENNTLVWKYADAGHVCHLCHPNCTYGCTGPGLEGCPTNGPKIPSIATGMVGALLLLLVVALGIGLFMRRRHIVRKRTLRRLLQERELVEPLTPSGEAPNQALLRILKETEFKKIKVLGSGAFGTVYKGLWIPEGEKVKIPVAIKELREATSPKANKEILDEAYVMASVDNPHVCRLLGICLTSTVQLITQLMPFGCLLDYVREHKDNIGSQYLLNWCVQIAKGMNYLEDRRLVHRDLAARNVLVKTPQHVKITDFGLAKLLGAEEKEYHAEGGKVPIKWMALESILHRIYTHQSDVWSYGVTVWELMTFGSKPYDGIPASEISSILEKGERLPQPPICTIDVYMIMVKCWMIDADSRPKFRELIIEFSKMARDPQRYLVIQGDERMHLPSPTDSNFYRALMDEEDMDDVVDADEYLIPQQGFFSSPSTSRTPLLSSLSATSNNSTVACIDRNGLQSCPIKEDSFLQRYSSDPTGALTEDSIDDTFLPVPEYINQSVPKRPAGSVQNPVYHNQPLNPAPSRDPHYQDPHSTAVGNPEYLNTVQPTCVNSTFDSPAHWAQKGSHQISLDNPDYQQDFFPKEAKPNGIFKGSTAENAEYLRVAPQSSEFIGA
T2 sequence (P42336 whole entry): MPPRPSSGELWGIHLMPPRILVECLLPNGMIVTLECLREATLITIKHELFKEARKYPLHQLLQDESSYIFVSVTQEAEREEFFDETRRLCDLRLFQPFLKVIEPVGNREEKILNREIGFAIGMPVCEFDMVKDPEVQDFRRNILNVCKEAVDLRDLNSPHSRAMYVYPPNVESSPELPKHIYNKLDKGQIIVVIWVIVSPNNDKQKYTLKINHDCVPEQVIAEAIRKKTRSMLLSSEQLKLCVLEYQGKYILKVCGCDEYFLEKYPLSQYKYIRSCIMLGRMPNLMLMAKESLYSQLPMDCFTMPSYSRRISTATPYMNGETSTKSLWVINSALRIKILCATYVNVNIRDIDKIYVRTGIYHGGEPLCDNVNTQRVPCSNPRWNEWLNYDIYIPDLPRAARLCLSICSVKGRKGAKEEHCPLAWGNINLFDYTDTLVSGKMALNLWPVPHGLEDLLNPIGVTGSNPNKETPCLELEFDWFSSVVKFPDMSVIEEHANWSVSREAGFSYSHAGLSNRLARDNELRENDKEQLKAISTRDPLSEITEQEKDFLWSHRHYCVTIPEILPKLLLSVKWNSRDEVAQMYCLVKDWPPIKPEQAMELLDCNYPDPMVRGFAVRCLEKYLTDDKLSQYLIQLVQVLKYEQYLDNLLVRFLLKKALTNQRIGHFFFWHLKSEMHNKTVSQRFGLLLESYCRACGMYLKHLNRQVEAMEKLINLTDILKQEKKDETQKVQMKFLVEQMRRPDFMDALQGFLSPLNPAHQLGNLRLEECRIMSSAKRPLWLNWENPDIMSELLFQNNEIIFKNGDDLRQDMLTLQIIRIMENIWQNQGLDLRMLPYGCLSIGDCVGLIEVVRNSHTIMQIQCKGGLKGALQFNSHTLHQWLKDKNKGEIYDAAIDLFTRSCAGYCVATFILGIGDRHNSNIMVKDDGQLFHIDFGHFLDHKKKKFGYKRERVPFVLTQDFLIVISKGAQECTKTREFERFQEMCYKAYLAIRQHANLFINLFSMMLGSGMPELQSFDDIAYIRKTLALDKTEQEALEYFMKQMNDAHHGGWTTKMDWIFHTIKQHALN
T2 sequence (P27986 whole entry partner): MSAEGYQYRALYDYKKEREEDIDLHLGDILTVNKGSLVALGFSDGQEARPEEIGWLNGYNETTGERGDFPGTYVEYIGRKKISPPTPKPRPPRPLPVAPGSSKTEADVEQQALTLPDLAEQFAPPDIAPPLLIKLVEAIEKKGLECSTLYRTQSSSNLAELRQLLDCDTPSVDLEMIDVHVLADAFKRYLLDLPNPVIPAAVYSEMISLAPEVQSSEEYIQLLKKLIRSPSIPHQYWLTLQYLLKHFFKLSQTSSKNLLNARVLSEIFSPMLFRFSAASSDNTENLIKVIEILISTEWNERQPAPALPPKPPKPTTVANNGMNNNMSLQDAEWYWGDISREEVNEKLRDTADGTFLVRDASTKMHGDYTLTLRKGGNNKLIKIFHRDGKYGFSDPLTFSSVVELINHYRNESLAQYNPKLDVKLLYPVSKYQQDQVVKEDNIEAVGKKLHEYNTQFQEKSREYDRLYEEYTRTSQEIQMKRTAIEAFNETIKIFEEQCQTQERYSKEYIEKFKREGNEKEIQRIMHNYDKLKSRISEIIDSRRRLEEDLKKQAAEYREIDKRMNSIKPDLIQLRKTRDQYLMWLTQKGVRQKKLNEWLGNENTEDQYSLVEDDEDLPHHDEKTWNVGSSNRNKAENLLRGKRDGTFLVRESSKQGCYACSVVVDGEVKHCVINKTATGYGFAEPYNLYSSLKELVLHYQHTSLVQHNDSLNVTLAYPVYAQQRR

Regarding `CCS(=O)(=O)N1CC(CC#N)(n2cc(-c3ncnc4[nH]ccc34)cn2)C1` [Baricitinib, baricitinib, reference compound], the “Weight of nude mice (NU/J Foxn1nu)” value was 17.9 and 18.3 and 18.5 and 18.7 and 19.2 in [1] (0.02 mg/kg, DAY 1); 19.4 and 19.8 and 20.2 and 20.4 and 20.7 in series [1] (0.02 mg/kg, DAY 7); 21.2 and 21.3 and 21.7 and 22.1 and 22.5 in series [1] (0.02 mg/kg, DAY 14); 22.6 and 22.8 and 23.2 and 24.2 and 24.4 in series [1] (0.02 mg/kg, DAY 21); 24.3 and 24.8 and 24.9 and 25.8 and 26.2 in [1] (0.02 mg/kg, DAY 28); 17.9 and 18.5 and 18.6 and 18.7 and 19.1 in series [1] (0.04 mg/kg, DAY 1). The “Weight of nude mice (NU/J Foxn1nu)” value was 19.2 and 19.8 and 20.1 (2×) and 20.5 in series [1] (0.04 mg/kg, DAY 7); 20.8 and 20.9 and 21.4 and 21.5 and 21.8 in series [1] (0.04 mg/kg, DAY 14); 22.4 and 22.6 and 23.1 and 23.3 and 23.5 in [1] (0.04 mg/kg, DAY 21); 24.6 and 24.8 and 25.3 and 25.4 and 25.7 in series [1] (0.04 mg/kg, DAY 28); 18.5 and 18.6 and 18.7 and 19.3 and 18.8 in [1] (0.1 mg/kg, DAY 1); 19.7 and 19.8 and 21.1 and 20.1 and 20.4 in series [1] (0.1 mg/kg, DAY 7). The “Weight of nude mice (NU/J Foxn1nu)” value is 21.3 and 22.9 and 21.8 and 22.1 in [1] (0.1 mg/kg, DAY 14); 22.6 and 23.2 and 24.3 and 23.6 and 23.8 in series [1] (0.1 mg/kg, DAY 21); 25.3 and 24.8 and 25.7 and 25.8 and 25.4 in series [1] (0.1 mg/kg, DAY 28).

On to `Fc1ccc(-c2cnc3[nH]cc(-c4ccnc(NC5CC5)n4)c3c2)cc1` [MJ04], for which the “Fold of selectivity vs. JAK3” value at EGFR (EGFR) is listed as 1609; at PI-3-K γ (PI-3-K γ), 1806. For the same compound, the half-inhibitory concentration (IC50) (commonly the concentration needed to halve the response being measured) against EGFR (Km ATP) is 3.27 µM; against PI-3-K α it was greater than 10 µM; against PI-3-K γ (Km ATP), 3.67 µM; against PI-3-K δ, greater than 10 µM; with HCT-116 it was 2.6 µM; with Mia PaCa-2, 2.27 µM. Moreover, the IC50 in the series on HEK-293 (Homo sapiens, HEK293, read-out: IC50 HEK-293, MTT, 48 h, normal cell line) was greater than 100 µM. Further, the “safety ratio (IC50 against HEK293 normal cell line versus IC50 in A549 cancer cell line)” value in the series with HEK-293 is roughly 26. Also, the STAT3 phosphorylation result in series [2] (A549 cells stimulated with IL-6) is “significant decrease”. In series [2] (A549 cells, dose-dependent), the “phosphorylation of STAT3 (Tyr705)” value is “significant decrease”. The “phosphorylation of JAK1” value in series [2] (setting [5]) was “significant reduction”. Besides, the “phosphorylation of JAK3” value in [2] (setting [5]) is reported as “significant reduction”. The “level of proinflammatory cytokines TNF-α, IL1-β and IL-6” value in series [3] is on record as “dampens the level of proinflammatory cytokines”. Besides, in [4] (single dose 0.04 mg/kg), the “mortality or clinical signs of toxicity” value is given as “no mortality or clinical signs of toxicity”. Further, the “skin irritation/corrosion, mortality or clinical signs of toxicity” value in series [4] (single dose 0.08 mg/kg, 14 days, 0.08 mg/kg) was “no skin irritation/corrosion, mortality or clinical signs of toxicity”.
